The values below come from patent US10519177B2, “Heterocyclic compounds and uses thereof” (Plexxikon Inc., priority 2013, dated 2019).

The test system of one experiment is bromodomain. The experiment in a line: at least one of the bromodomain cell assays of Example 57. In kind it is cell-based. The note with it: at least one of the bromodomain cell assays described in Example 57; read-out: IC50 in at least one of the bromodomain cell assays.
Another experiment concerns MV-4-11 cells. The experiment in a line: Oncology cell growth assay MV-4-11 (CellTiter Glo). In kind it is cell-based. The note with it: Homo sapiens, MV4-11, 72 h; MV-4-11, 3d growth; read-out: Cell activity (IC50 μM) MV-4-11 3d-Growth. The text has this: Published bromodomain inhibitors JQ1 and iBET 151 have shown activity in variety of cancer cells such leukemia and lymphoma, multiple myeloma cells, NUT midline carcinoma and glioblastoma cells (Dawson M A et al. 2011; Delmore J E 2011; Chen Z et al. 2013; Filippakopoulos P et al. 2010; Mertz J A et al. 2011; Ott C J et al. 2012). In this study, we test compounds in different cancer cell lines. MV-4-11 and MOLM-13 are AML cell lines harboring a MLL-AF4 and MLL-AF9 translocation, respectively. MM.1S is a multiple myeloma cell line. SK-N-AS, IMR-32 and SK-N-BE(2) are neuroblastoma cell lines. IMR-32 and SK-N-BE(2) cell lines harbor MYCN amplifications.
MV-4-11, MM.1S, IMR-32, SK-N-AS and SK-N-BE(2) were obtained from ATCC (IL, USA) and MOLM-13 were purchased from DSMZ (Braunschweig, German). Cells are cultured as recommended by their sources. For growth inhibition studies 3000 cells are seeded in wells of a 96-well plate in 75 μL of culture media. After several hours, growth media containing compounds of formula (I) are added to the wells. Compound at a maximal concentration of 5 mM was serially diluted 1:3 for a total of 8 point titration with DMSO as a control. A 1 μL aliquot of each dilution point is added to 249 μL growth media and 75 μL is added to each well containing cells, providing 10 μM compound at the maximum concentration point. The final concentration of DMSO in all wells is 0.2%. Cells are incubated for 72 hours, and 25 μL of CellTiter Glo Reagent (Promega GA, USA) is added to each well. Plates are shaken for approximately 10 minutes and chemiluminescent signal is read on Tecan microplate reader. The measured luminescence correlates directly with cell number.
All data is normalized to the mean of eight DMSO high control wells on each plate. A four parameter curve fit of the following formula was then applied: Y=a+(b−a)/(1+(x/c)^d) Where ‘a’ is the minimum, ‘b’ is the maximum, ‘c’ is the pIC50 and ‘d’ is the Hill slope. […] Myc Reporter Assay

Some results are limits rather than exact numbers.

For `Cc1noc(C)c1-c1ccc2c(-c3cnn(C)c3)cn(S(=O)(=O)c3ccccc3)c2c1` [P-0230, 4-[1-(benzenesulfonyl)-3-(1-methylpyrazol-4-yl)indol-6-yl]-3,5-dimethyl-isoxazole], the IC50 (commonly the midpoint of a concentration-inhibition curve) in the experiment with bromodomain was under 10 µM.

Turning to `Cc1noc(C)c1-c1ccc2c(-c3cnn(C)c3)cn(S(=O)(=O)C3CCCC3)c2c1` [P-0231, 4-[1-cyclopentyl-sulfonyl-3-(1-methyl-pyrazol-4-yl)indol-6-yl]-3,5-dimethyl-isoxazole], the IC50 in the experiment with bromodomain is under 10 µM.

For `COC(=O)c1ccc(-c2cn(CC3CC4CC4C3)c3cc(-c4c(C)noc4C)cnc23)cc1` (stereo not shown) [P-0609, methyl 4-[1-(3-bicyclo[3.1.0]hexanylmethyl)-6-(3,5-dimethylisoxazol-4-yl)pyrrolo[3,2-b]pyridin-3-yl]benzoate], the half-inhibitory concentration (IC50) in the experiment with bromodomain was under 10 µM.

For the molecule `COC(=O)c1ccc(-c2cn(C(c3ccccc3)c3ccccn3)c3cc(-c4c(C)noc4C)cnc23)cc1` (stereo not shown) [P-0610, methyl 4-[6-(3,5-dimethylisoxazol-4-yl)-1-[phenyl(2-pyridyl)methyl]pyrrolo[3,2-b]pyridin-3-yl]benzoate], in the experiment with bromodomain, the 50% inhibitory concentration (IC50) is under 10 µM.

For the molecule `Cc1noc(C)c1-c1cnc2c(-c3ccc(C(=O)O)cc3)cn(C(c3ccccc3)c3ccccn3)c2c1` (stereo not shown) [P-0611, 4-[6-(3,5-dimethylisoxazol-4-yl)-1-[phenyl(2-pyridyl)methyl]pyrrolo[3,2-b]pyridin-3-yl]benzoic acid], the IC50 with bromodomain is under 10 µM.

For `Cc1cc(-c2cnc3c(-c4ccc(C(=O)OC(C)(C)C)cc4)cn(CC4CCC(F)(F)CC4)c3c2)cn(C)c1=O` [P-0612, tert-butyl 4-[1-[(4,4-difluorocyclohexyl)methyl]-6-(1,5-dimethyl-6-oxo-3-pyridyl)pyrrolo[3,2-b]pyridin-3-yl]benzoate], in the experiment with bromodomain, the IC50 is under 10 µM.

As for `Cc1cc(-c2cnc3c(-c4ccc(C(=O)O)cc4)cn(CC4CCC(F)(F)CC4)c3c2)cn(C)c1=O` [P-0613, 4-[1-[(4,4-difluorocyclohexyl)methyl]-6-(1,5-dimethyl-6-oxo-3-pyridyl)pyrrolo[3,2-b]pyridin-3-yl]benzoic acid], the IC50 with bromodomain was under 10 µM.

On to `Cc1noc(C)c1-c1cnc2c(-c3ncc(C(=O)O)cn3)cn(CC3CCC(F)(F)CC3)c2c1` [P-0614, 2-[1-[(4,4-difluorocyclohexyl)methyl]-6-(3,5-dimethylisoxazol-4-yl)pyrrolo[3,2-b]pyridin-3-yl]pyrimidine-5-carboxylic acid], for which the concentration for half-maximal inhibition (IC50) in the experiment with bromodomain is under 10 µM.

For the molecule `[2H]C([2H])([2H])c1noc(C([2H])([2H])[2H])c1-c1cnc2c(-c3cnn(CC(F)(F)F)c3)cn(CC3CCC(F)(F)CC3)c2c1` [P-0615, 4-[1-[(4,4-difluorocyclohexyl)methyl]-3-[1-(2,2,2-trifluoroethyl)pyrazol-4-yl]pyrrolo[3,2-b]pyridin-6-yl]-3,5-bis(trideuteriomethyl)isoxazole], the IC50 in the experiment on bromodomain was under 10 µM.

On to `Cc1noc(C)c1-c1cnc2c(I)cn(C(c3ccccc3)c3ccccc3)c2c1` [P-0616, 4-(1-benzhydryl-3-iodo-pyrrolo[3,2-b]pyridin-6-yl)-3,5-dimethyl-isoxazole], for which, in the experiment with bromodomain, the IC50 is under 10 µM.

Take `COC(=O)c1ccc(-c2cn(C(c3ccccc3)c3ccccc3)c3cc(-c4c(C)noc4C)cnc23)cc1` [P-0617, methyl 4-[1-benzhydryl-6-(3,5-dimethylisoxazol-4-yl)pyrrolo[3,2-b]pyridin-3-yl]benzoate]: the IC50 in the experiment with bromodomain was under 10 µM.

Take `Cc1noc(C)c1-c1cnc2c(-c3ccc(C(=O)OC(C)C)cc3)cn(CC3CCC(F)(F)CC3)c2c1` [P-0618, isopropyl 4-[1-[(4,4-difluorocyclohexyl)methyl]-6-(3,5-dimethylisoxazol-4-yl)pyrrolo[3,2-b]pyridin-3-yl]benzoate]: in the experiment with bromodomain, the IC50 is under 10 µM.

Turning to `Cc1noc(C)c1-c1cnc2c(-c3ccc(S(C)(=O)=O)cc3)cn(CC3CCC(F)(F)CC3)c2c1` [P-0619, 4-[1-[(4,4-difluorocyclohexyl)methyl]-3-(4-methylsulfonylphenyl)pyrrolo[3,2-b]pyridin-6-yl]-3,5-dimethyl-isoxazole], the IC50 in the experiment on bromodomain was under 10 µM.

In the case of `Cc1noc(C)c1-c1cnc2c(-c3ccc(C(=O)O)cc3)cn(C(c3ccccc3)c3ccccc3)c2c1` [P-0620, 4-[1-benzhydryl-6-(3,5-dimethylisoxazol-4-yl)pyrrolo[3,2-b]pyridin-3-yl]benzoic acid], the half-inhibitory concentration (IC50) in the experiment with bromodomain is under 10 µM.

For the molecule `Cc1noc(C)c1-c1cnc2c(-c3ccc(C(=O)O)cc3)cn(CC3CC4CC4C3)c2c1` (stereo not shown) [P-0621, 4-[1-(3-bicyclo[3.1.0]hexanylmethyl)-6-(3,5-dimethylisoxazol-4-yl)pyrrolo[3,2-b]pyridin-3-yl]benzoic acid], the IC50 in the experiment on bromodomain was under 10 µM.

Take `Cc1ccc(-c2cn(CC3CCCCC3)c3cc(-c4c(C)noc4C)cnc23)cc1` [P-0622]: the IC50 in the experiment with bromodomain was under 10 µM.

As to `Cc1noc(C)c1-c1cnc2c(-c3ccc(P(=O)(O)O)cc3)cn(CC3CCCCC3)c2c1` [P-0701, [4-[1-(cyclohexylmethyl)-6-(3,5-dimethylisoxazol-4-yl)pyrrolo[3,2-b]pyridin-3-yl]phenyl]phosphonic acid], in the experiment with bromodomain, the IC50 was under 10 µM.

Take `Cc1noc(C)c1-c1cnc2c(-c3ccc(C4(C(=O)O)CC4)cc3)cn(CC3CCCCC3)c2c1` [P-0702, 1-[4-[1-(cyclohexylmethyl)-6-(3,5-dimethylisoxazol-4-yl)pyrrolo[3,2-b]pyridin-3-yl]phenyl]cyclopropanecarboxylic acid]: in the experiment with bromodomain, the half-maximal inhibitory concentration (IC50) was under 10 µM.

Consider `Cc1noc(C)c1-c1cnc2c(-c3ccc(C(C)(C)C(=O)O)cc3)cn(CC3CCCCC3)c2c1` [P-0703, 2-[4-[1-(cyclohexylmethyl)-6-(3,5-dimethylisoxazol-4-yl)pyrrolo[3,2-b]pyridin-3-yl]phenyl]-2-methyl-propanoic acid], for which the IC50 with bromodomain is under 10 µM.

In the case of `Cc1noc(C)c1-c1cnc2c(-c3ccc(CO)cc3)cn(CC3CCCCC3)c2c1` [P-0704, [4-[1-(cyclohexylmethyl)-6-(3,5-dimethylisoxazol-4-yl)pyrrolo[3,2-b]pyridin-3-yl]phenyl]methanol], the IC50 in the experiment with bromodomain was under 10 µM.

Regarding `COC(=O)c1ccc(-c2cn(CC3CCCCC3)c3cc(-c4c(C)noc4C)cnc23)cc1` [P-0706, methyl 4-[1-(cyclohexylmethyl)-6-(3,5-dimethylisoxazol-4-yl)pyrrolo[3,2-b]pyridin-3-yl]benzoate], the 50% inhibitory concentration (IC50) in the experiment with bromodomain is under 10 µM.

Take `CCOC(=O)c1ccc(-c2cn(CC3CCCCC3)c3cc(-c4c(C)noc4C)cnc23)cc1` [P-0707, ethyl 4-[1-(cyclohexylmethyl)-6-(3,5-dimethylisoxazol-4-yl)pyrrolo[3,2-b]pyridin-3-yl]benzoate]: the concentration for half-maximal inhibition (IC50) with bromodomain was under 10 µM.

As for `Cc1noc(C)c1-c1cnc2c(I)cn(Cc3ccccc3C#N)c2c1` [P-0921, 2-[[6-(3,5-dimethylisoxazol-4-yl)-3-iodo-pyrrolo[3,2-b]pyridin-1-yl]methyl]benzonitrile], in the experiment on MV-4-11 cells, the IC50 is under 1 µM.

As to `COC(=O)c1ccc(-c2c[nH]c3cc(-c4c(C)noc4C)cnc23)cc1` [P-1033, methyl 4-[6-(3,5-dimethylisoxazol-4-yl)-1H-pyrrolo[3,2-b]pyridin-3-yl]benzoate], the IC50 in the experiment with MV-4-11 cells lay within 1 to 10 µM.

Regarding `Cc1noc(C)c1-c1ccc2c(I)cn([C@@H](C)c3ccccn3)c2c1` [P-1051, 4-[3-iodo-1-[(1S)-1-(2-pyridyl)ethyl]indol-6-yl]-3,5-dimethyl-isoxazole], the IC50 with MV-4-11 cells was in the range of 1 to 10 µM.
